# In patent US9487749B2 (priority 2009, dated 2016):
# “And” between values parts separate entries of the source, which are not always exact repeats. Identical values can stand only once.
# Key:
# [1] = test system: Swine-like H1N1 Influenza A virus strain A/California/04/2009; assay type: cell-based
# [2] = test system: Herpes Simplex Virus type 1 (ATCC #VR-260); assay type: cell-based
# Candida albicans = experiment: USP Antimicrobial Effectiveness Test (AET) of MSM supplemented TSB; assay type: cell-based; parameters: key to AET test results (microorganism count): Colonies too numerous to count (TNTC); conditions: for Log Reduction from Initial Microorganism Inoculum: 1:10 dilution of MSM, 14 Days, 28 Days; for AET test results (microorganism count): 48 hrs
# Text: (§1) Compounds or formulated products having antimicrobial activity may be evaluated with the United States Pharmacopeia (USP) Antimicrobial Effectiveness Test (AET). The AET involves the addition of specified microorganisms (Candida albicans, Aspergillus niger, Escherichia coli, Pseudomonas aeruginosa and Staphylococcus aureus) directly to a test product at relatively high concentrations to simulate contamination. The product is held for one month, with weekly analysis of microorganism levels. […] For yeast and mold, no increase from the initial inoculums level is permitted. […] Inoculations were made using Candida albicans, Aspergillus niger, Escherichia coli, Pseudomonas aeruginosa and Staphylococcus aureus. Tryptic soy broth (TSB) was used as the culturing media. […] The inoculated media was held for one month, during which time the added microorganisms were enumerated weekly to determine if they were growing, dying off, or remaining near the initial inoculation level. […] The acceptance criteria for antimicrobial effectiveness are described in detail in the USP, herein incorporated by reference.
# Staphylococcus aureus = experiment: as above; assay type: cell-based; parameters: key to AET test results (microorganism count): Colonies too numerous to count (TNTC); conditions: for Log Reduction from Initial Microorganism Inoculum: 1:10 dilution of MSM, 14 Days, 28 Days; for AET test results (microorganism count): 48 hrs
# Text: as §1
# Aspergillus niger = experiment: as above; assay type: cell-based; parameters: key to AET test results (microorganism count): Colonies too numerous to count (TNTC); conditions: for Log Reduction from Initial Microorganism Inoculum: 1:10 dilution of MSM, 14 Days, 28 Days; for AET test results (microorganism count): 48 hrs
# Text: as §1
# [3] = test system: Bifidobacterium bifidum ATCC #29521; experiment: Bifidobacterium bifidum growth in media fortified with MSM, 96 hours; assay type: cell-based
smiles,measurement,setting,value
"CS(C)(=O)=O [MSM, Methylsulfonylmethane]",Average Log Stimulation,[1],0.17 log10
same,Average Percent Stimulation,[1],32.39%
same,Average TCID50,[1],3.67 log10 and 4.42 log10 and 4.67 log10 and 5.00 log10 and 4.58 log10 and 4.17 log10
same,Log Stimulation,[1],0.17 log10
same,Percent Stimulation,[1],32.39%
same,TCID50,[1],3.75 log10 and 3.50 log10 and 4.00 log10 and 4.50 log10 and 4.25 log10 and 4.75 log10 and 5.00 log10
same,log10 reduction,[1],0.66 log10 and 0.41 log10
same,reduction of virus population,[1],more than 1.0 log10
same,Average TCID50,[2],3.17 log10 and 4.67 log10 and 4.33 log10 and 4.08 log10 and 4.83 log10 and 5.00 log10 and 5.42 log10
same,reduction of virus population,[2],more than 1.0 log10
same,Test Product Cytotoxicity,Vero cells (ATCC#CCL-81),00
same,Log Reduction from Initial Microorganism Inoculum,Candida albicans; after 14 days,4.2 log
same,Log Reduction from Initial Microorganism Inoculum,Candida albicans; after 28 days,4.4 log
same,AET test results (microorganism count),Candida albicans; 1:100 dilution of MSM in TSB,TNTC
same,AET test results (microorganism count),Candida albicans; 1:1000 dilution of MSM in TSB,TNTC
same,Log Reduction from Initial Microorganism Inoculum,Staphylococcus aureus; after 14 days,4.5 log
same,Log Reduction from Initial Microorganism Inoculum,Staphylococcus aureus; after 28 days,4.7 log
same,AET test results (microorganism count),Staphylococcus aureus; 1:100 dilution of MSM in TSB,TNTC
same,AET test results (microorganism count),Staphylococcus aureus; 1:1000 dilution of MSM in TSB,TNTC
same,Log Reduction from Initial Microorganism Inoculum,Aspergillus niger; after 14 days,4.3 log
same,Log Reduction from Initial Microorganism Inoculum,Aspergillus niger; after 28 days,4.5 log
same,AET test results (microorganism count),Aspergillus niger; 1:100 dilution of MSM in TSB,TNTC*
same,AET test results (microorganism count),Aspergillus niger; 1:1000 dilution of MSM in TSB,TNTC*
same,reduction of viability,Streptococcus Pneumonia,approximately 5%
same,Log Growth of Bifidobacteruim bifidum in Media Fortified with MSM,"[3]; 0.125% MSM, Hr 0",1.12 log
same,Log Growth of Bifidobacteruim bifidum in Media Fortified with MSM,"[3]; 0.125% MSM, Hr 8",2.89 log
same,Log Growth of Bifidobacteruim bifidum in Media Fortified with MSM,"[3]; 0.125% MSM, Hr 16",7.85 log
same,Log Growth of Bifidobacteruim bifidum in Media Fortified with MSM,"[3]; 0.125% MSM, Hr 24",9.06 log
same,Log Growth of Bifidobacteruim bifidum in Media Fortified with MSM,"[3]; 0.125% MSM, Hr 32",11.45 log
same,Log Growth of Bifidobacteruim bifidum in Media Fortified with MSM,"[3]; 0.125% MSM, Hr 40",10.80 log
same,Log Growth of Bifidobacteruim bifidum in Media Fortified with MSM,"[3]; 0.125% MSM, Hr 48",8.22 log
same,Log Growth of Bifidobacteruim bifidum in Media Fortified with MSM,"[3]; 0.125% MSM, Hr 56",7.25 log
same,Log Growth of Bifidobacteruim bifidum in Media Fortified with MSM,"[3]; 0.125% MSM, Hr 64",8.86 log
same,Log Growth of Bifidobacteruim bifidum in Media Fortified with MSM,"[3]; 0.125% MSM, Hr 72",6.59 log
same,Log Growth of Bifidobacteruim bifidum in Media Fortified with MSM,"[3]; 0.125% MSM, Hr 80",9.12 log
same,Log Growth of Bifidobacteruim bifidum in Media Fortified with MSM,"[3]; 0.125% MSM, Hr 88",9.12 log
same,Log Growth of Bifidobacteruim bifidum in Media Fortified with MSM,"[3]; 0.125% MSM, Hr 96",<6.00 log
same,logs higher than the maximum of the control,[3]; 0.5% MSM,0.5 logs
same,logs higher than the control,"[3]; 0.5% MSM, hour 96",approximately 2 logs
same,logs of growth,"[3]; 0.5% MSM, hour 96",8.82 logs
same,Log Growth of Bifidobacteruim bifidum in Media Fortified with MSM,"[3]; 0.5% MSM, Hr 0",1.00 log
same,Log Growth of Bifidobacteruim bifidum in Media Fortified with MSM,"[3]; 0.5% MSM, Hr 8",2.84 log
same,Log Growth of Bifidobacteruim bifidum in Media Fortified with MSM,"[3]; 0.5% MSM, Hr 16",7.45 log
same,Log Growth of Bifidobacteruim bifidum in Media Fortified with MSM,"[3]; 0.5% MSM, Hr 24",8.81 log
same,Log Growth of Bifidobacteruim bifidum in Media Fortified with MSM,"[3]; 0.5% MSM, Hr 32",11.22 log
same,Log Growth of Bifidobacteruim bifidum in Media Fortified with MSM,"[3]; 0.5% MSM, Hr 40",12.09 log
same,Log Growth of Bifidobacteruim bifidum in Media Fortified with MSM,"[3]; 0.5% MSM, Hr 48",9.39 log
same,Log Growth of Bifidobacteruim bifidum in Media Fortified with MSM,"[3]; 0.5% MSM, Hr 56",9.51 log
same,Log Growth of Bifidobacteruim bifidum in Media Fortified with MSM,"[3]; 0.5% MSM, Hr 64",10.34 log
same,Log Growth of Bifidobacteruim bifidum in Media Fortified with MSM,"[3]; 0.5% MSM, Hr 72",8.35 log
same,Log Growth of Bifidobacteruim bifidum in Media Fortified with MSM,"[3]; 0.5% MSM, Hr 80",10.38 log
same,Log Growth of Bifidobacteruim bifidum in Media Fortified with MSM,"[3]; 0.5% MSM, Hr 88",9.70 log
same,Log Growth of Bifidobacteruim bifidum in Media Fortified with MSM,"[3]; 0.5% MSM, Hr 96",8.82 log
same,"logs of growth (estimated, outside the countable range)","[3]; 1% MSM, Hour 96",less than 6 logs
same,Log Growth of Bifidobacteruim bifidum in Media Fortified with MSM,"[3]; 1% MSM, Hr 0",1.00 log
same,Log Growth of Bifidobacteruim bifidum in Media Fortified with MSM,"[3]; 1% MSM, Hr 8",2.73 log
same,Log Growth of Bifidobacteruim bifidum in Media Fortified with MSM,"[3]; 1% MSM, Hr 16",7.73 log
same,Log Growth of Bifidobacteruim bifidum in Media Fortified with MSM,"[3]; 1% MSM, Hr 24",8.81 log
same,Log Growth of Bifidobacteruim bifidum in Media Fortified with MSM,"[3]; 1% MSM, Hr 32",11.49 log
same,Log Growth of Bifidobacteruim bifidum in Media Fortified with MSM,"[3]; 1% MSM, Hr 40",11.19 log
same,Log Growth of Bifidobacteruim bifidum in Media Fortified with MSM,"[3]; 1% MSM, Hr 48",10.43 log
same,Log Growth of Bifidobacteruim bifidum in Media Fortified with MSM,"[3]; 1% MSM, Hr 56",10.57 log
same,Log Growth of Bifidobacteruim bifidum in Media Fortified with MSM,"[3]; 1% MSM, Hr 64",10.66 log
same,Log Growth of Bifidobacteruim bifidum in Media Fortified with MSM,"[3]; 1% MSM, Hr 72",8.34 log
same,Log Growth of Bifidobacteruim bifidum in Media Fortified with MSM,"[3]; 1% MSM, Hr 80",9.43 log
same,Log Growth of Bifidobacteruim bifidum in Media Fortified with MSM,"[3]; 1% MSM, Hr 88",10.41 log
same,Log Growth of Bifidobacteruim bifidum in Media Fortified with MSM,"[3]; 1% MSM, Hr 96",<6.00 log
same,log increase of growth,"[3]; 1% MSM, listed as order: Hour 80, Hour 88",1 log
same,extension of the stationary phase,[3]; 5% MSM,40 h
same,logs lower than the control,"[3]; 5% MSM, Hour 48",0.7 logs
same,Log Growth of Bifidobacteruim bifidum in Media Fortified with MSM,"[3]; 5% MSM, Hr 0",1.12 log
same,Log Growth of Bifidobacteruim bifidum in Media Fortified with MSM,"[3]; 5% MSM, Hr 8",2.04 log
same,Log Growth of Bifidobacteruim bifidum in Media Fortified with MSM,"[3]; 5% MSM, Hr 16",6.10 log
same,Log Growth of Bifidobacteruim bifidum in Media Fortified with MSM,"[3]; 5% MSM, Hr 24",8.43 log
same,Log Growth of Bifidobacteruim bifidum in Media Fortified with MSM,"[3]; 5% MSM, Hr 32",11.13 log
same,Log Growth of Bifidobacteruim bifidum in Media Fortified with MSM,"[3]; 5% MSM, Hr 40",11.78 log
same,Log Growth of Bifidobacteruim bifidum in Media Fortified with MSM,"[3]; 5% MSM, Hr 48",10.70 log
same,Log Growth of Bifidobacteruim bifidum in Media Fortified with MSM,"[3]; 5% MSM, Hr 56",10.59 log
same,Log Growth of Bifidobacteruim bifidum in Media Fortified with MSM,"[3]; 5% MSM, Hr 64",14.32 log
same,Log Growth of Bifidobacteruim bifidum in Media Fortified with MSM,"[3]; 5% MSM, Hr 72",8.65 log
same,Log Growth of Bifidobacteruim bifidum in Media Fortified with MSM,"[3]; 5% MSM, Hr 80",12.20 log
same,Log Growth of Bifidobacteruim bifidum in Media Fortified with MSM,"[3]; 5% MSM, Hr 88",12.31 log
same,Log Growth of Bifidobacteruim bifidum in Media Fortified with MSM,"[3]; 5% MSM, Hr 96",9.60 log
same,log increase of growth,"[3]; […] MSM, Hour 88",1 log
same,logs higher than the maximum of the control,"[3]; […] MSM, maximum",0.72 logs
same,Log Growth of Bifidobacteruim bifidum in Media Fortified with MSM,"[3]; […] MSM, Hr 96",<6.00 log
same,logs higher in growth rate compared to the control,"[3]; […] MSM, listed as order: hour 40, Hour 56 to hour 72",0.7 logs
same,maximum growth reached before the control,[3]; all MSM concentrations (hour 32 vs hour 48),16 h
